Laboratory results reported in patent US11498920B2, “4-(1H-imidazol-5-yl)-1H-pyrrolo[2, 3-b] pyridines for use in the treatment of leukaemias, lymphomas and solid tumors” (MASARYKOVA UNIVERZITA, priority 2018, dated 2022).

How the values were obtained:
Type in all cases: cell-based
[1] = test system: MIA-PA-CA; experiment: Cytotoxicity on panel of cell lines, TMRE viability (Example II.2); conditions: Homo sapiens, MIA PaCa-2, 24 hours, mean, control = 1, read-out: cell viability relative to control, MIA-PA-CA (pancreatic cancer)
Description: (§1) The leukemia and lymphoma-derived cell lines [MEC-1 cell line (derived from chronic lymphocytic leukemia—CLL), Nalm-16 (acute lymphocytic leukemia—ALL), K562 (chronic myeloid leukemia—CML), HL-60 (acute myeloid leukemia—AML), Maver-1 and Mino (mantle cell lymphoma—MCL), BL-41 (Burkitt lymphoma—BL), WSU-NHL (follicular lymphoma—FL), SUDHL (diffuse large B-cell lymphoma—DLBCL)], primary CLL cells and nonmalignant control primary cells were cultured in suspension in flasks under the following conditions: RPMI 1640 medium (Hyclone) supplemented with 10% fetal bovine serum (FBS, Gibco) and 1% penicillin/streptomycin (Life Technologies), 37° C., 5% CO2 and 95% relative humidity, with optimal culture cell density 5×10^6 cells/mL in case of primary cells and 0.5-1×10^6 cells/mL in case of cell lines. The adherent cell lines [A375 (derived from malignant melanoma), MDA-MB-231 and MCF-7 (breast cancer), MIA-PA-CA and PANC1 (pancreatic cancer), PC3 (prostate cancer), OVCAR4 (ovarian cancer) and HEPG2 (hepatocellular carcinoma)] were cultured on plates under the same conditions using RPMI1640 or DMEM medium (Gibco) according to instructions provided by the distributor (DSMZ/ATCC).
(§2) The tested cell lines were incubated with inhibitors at 30 μM concentration or corresponding amount of solvent (DMSO, Sigma Aldrich) in standard culture conditions, seeded as 10^5 cells/500 μl per well in a 24-well plate. Experiments were performed in technical duplicates and 2-3 biological repetitions per cell line. Viability of cells was assessed after 24 hours.
(§3) Relative values are presented as a mean value, showing ratio to the effect of control. Relative value <1=lower viability than control condition.

[2] = test system: BL-41; experiment: as above; conditions: Homo sapiens, 24 hours, mean, control = 1, read-out: cell viability relative to control, BL-41 (BL)
Description: as §1, §2, §3

[3] = test system: HL60; experiment: as above; conditions: Homo sapiens, HL-60, 24 hours, mean, control = 1, read-out: cell viability relative to control, HL60 (AML)
Description: as §1, §2, §3

[4] = test system: WSU-NHL; experiment: as above; conditions: Homo sapiens, 24 hours, mean, control = 1, read-out: cell viability relative to control, WSU-NHL (FL)
Description: as §1, §2, §3

[5] = test system: primary CLL; experiment: as above; conditions: Homo sapiens, 24 hours, mean, control = 1, read-out: cell viability relative to control, primary CLL
Description: as §1, §2, §3

[6] = test system: OVCAR4; experiment: as above; conditions: Homo sapiens, OVCAR-4, 24 hours, mean, control = 1, read-out: cell viability relative to control, OVCAR4 (ovarian cancer)
Description: as §1, §2, §3

[7] = test system: SUDHL; experiment: as above; conditions: 24 hours, mean, control = 1, read-out: cell viability relative to control, SUDHL (DLBCL)
Description: as §1, §2, §3

[8] = test system: Maver1; experiment: as above; conditions: Homo sapiens, 24 hours, mean, control = 1, read-out: cell viability relative to control, Maver1 (MCL)
Description: as §1, §2, §3

[9] = test system: A375; experiment: as above; conditions: Homo sapiens, A-375, 24 hours, mean, control = 1, read-out: cell viability relative to control, A375 (melanoma)
Description: as §1, §2, §3

[10] = test system: HEPG2; experiment: as above; conditions: Homo sapiens, 24 hours, mean, control = 1, read-out: cell viability relative to control, HEPG2 (hepatocellular carcinoma)
Description: as §1, §2, §3

[11] = test system: MEC-1; experiment: as above; conditions: Homo sapiens, MEC1, 24 hours, mean, control = 1, read-out: cell viability relative to control, MEC-1 (CLL)
Description: as §1, §2, §3

[12] = test system: PANC1; experiment: as above; conditions: Homo sapiens, PANC-1, 24 hours, mean, control = 1, read-out: cell viability relative to control, PANC1 (pancreatic cancer)
Description: as §1, §2, §3

[13] = test system: MDA-MB-231; experiment: as above; conditions: Homo sapiens, 24 hours, mean, control = 1, read-out: cell viability relative to control, MDA-MB-231 (breast cancer)
Description: as §1, §2, §3

[14] = test system: Mino; experiment: as above; conditions: Homo sapiens, 24 hours, mean, control = 1, read-out: cell viability relative to control, Mino (MCL)
Description: as §1, §2, §3

[15] = test system: PC3; experiment: as above; conditions: Homo sapiens, PC-3, 24 hours, mean, control = 1, read-out: cell viability relative to control, PC3 (prostate cancer)
Description: as §1, §2, §3

[16] = test system: MCF-7; experiment: as above; conditions: Homo sapiens, MCF7, 24 hours, mean, control = 1, read-out: cell viability relative to control, MCF-7 (breast cancer)
Description: as §1, §2, §3

[17] = test system: primary CLL cells; experiment: Cytotoxicity, TMRE flow cytometry viability, primary CLL cells (Example II.1); conditions: Homo sapiens, CLL cell, 6 hours, TMRE positive cells normalized to control, ratio to PF670462, <1 = higher cytotoxicity than PF670462, read-out: Viability of cells, Compound of formula I (100 μM), relative to PF670462 (100 μM), CLL primary cells
[18] = test system: Maver-1 cells (mantle cell lymphoma); experiment: Cytotoxicity, TMRE flow cytometry viability, Maver-1 cells (Example II.1); conditions: Homo sapiens, Maver1, 24 hours, TMRE positive cells normalized to control, ratio to PF670462, <1 = higher cytotoxicity than PF670462, read-out: Viability of cells, Compound of formula I (100 μM), relative to PF670462 (100 μM), Maver-1 cells (mantle cell lymphoma)

SMILES: C=CS(=O)(=O)N[C@H]1CC[C@@H](n2cnc(-c3ccc(F)cc3)c2-c2ccnc3[nH]ccc23)CC1 [Preparative Example 97]
- viability at 30 µM [1]: 23%
- viability at 30 µM [2]: 11%
- viability at 30 µM [3]: 68%
- viability at 30 µM [4]: 2%
- viability at 30 µM [5]: 51%
- viability at 30 µM [6]: 78%
- viability at 30 µM [7]: 68%
- viability at 30 µM [8]: 1%
- viability at 30 µM [9]: 17%
- viability at 30 µM [10]: 39%
- viability at 30 µM [11]: 1%
- viability at 30 µM [12]: 50%
- viability at 30 µM [13]: 53%
- viability at 30 µM [14]: 0%
- viability at 30 µM [15]: 74%
- viability at 30 µM [16]: 28%
- viability at 100 µM [17]: 18%
- viability at 100 µM [18]: 1%

SMILES: Fc1ccc(-c2ncn(Cc3ccccc3)c2-c2ccnc3[nH]ccc23)cc1Cl [Preparative Example 140, 4-(1-benzyl-4-(3-chloro-4-fluorophenyl)-1H-imidazol-5-yl)-1H-pyrrolo[2,3-b]pyridine]
- viability at 30 µM [1]: 29%
- viability at 30 µM [2]: 44%
- viability at 30 µM [3]: 78%
- viability at 30 µM [4]: 56%
- viability at 30 µM [5]: 60%
- viability at 30 µM [6]: 87%
- viability at 30 µM [7]: 11%
- viability at 30 µM [8]: 7%
- viability at 30 µM [9]: 80%
- viability at 30 µM [10]: 22%
- viability at 30 µM [11]: 67%
- viability at 30 µM [12]: 77%
- viability at 30 µM [13]: 86%
- viability at 30 µM [14]: 3%
- viability at 30 µM [15]: 67%
- viability at 30 µM [16]: 43%
- viability at 100 µM [17]: 1%
- viability at 100 µM [18]: 0%

SMILES: Fc1ccc(-c2ncn(C3CCCCC3)c2-c2c(F)cnc3[nH]ccc23)cc1 [Preparative Example 147, 4-(1-cyclohexyl-4-(4-fluorophenyl)-1H-imidazol-5-yl)-5-fluoro-1H-pyrrolo[2,3-b]pyridine]
- viability at 30 µM [1]: 45%
- viability at 30 µM [2]: 21%
- viability at 30 µM [3]: 84%
- viability at 30 µM [4]: 38%
- viability at 30 µM [5]: 37%
- viability at 30 µM [6]: 69%
- viability at 30 µM [7]: 1%
- viability at 30 µM [8]: 0%
- viability at 30 µM [9]: 85%
- viability at 30 µM [10]: 41%
- viability at 30 µM [11]: 38%
- viability at 30 µM [12]: 67%
- viability at 30 µM [14]: 1%
- viability at 30 µM [15]: 57%
- viability at 30 µM [16]: 41%
- viability at 100 µM [17]: 8%
- viability at 100 µM [18]: 3%

SMILES: Fc1ccc(-c2ncn(C3CCCCC3)c2-c2ccnc3[nH]cc(F)c23)cc1 [Preparative Example 149, 4-(1-cyclohexyl-4-(4-fluorophenyl)-1H-imidazol-5-yl)-3-fluoro-1H-pyrrolo[2,3-b]pyridine]
- viability at 30 µM [1]: 87%
- viability at 30 µM [2]: 22%
- viability at 30 µM [3]: 79%
- viability at 30 µM [4]: 26%
- viability at 30 µM [5]: 68%
- viability at 30 µM [7]: 21%
- viability at 30 µM [8]: 1%
- viability at 30 µM [10]: 77%
- viability at 30 µM [11]: 33%
- viability at 30 µM [14]: 1%
- viability at 30 µM [15]: 86%
- viability at 30 µM [16]: 65%
- viability at 100 µM [17]: 11%
- viability at 100 µM [18]: 0%
